Paper PMC11653702, “Targeting the SPC25/RIOK1/MYH9 Axis to Overcome Tumor Stemness and Platinum Resistance in Epithelial Ovarian Cancer” (Advanced Science, 2024)
“And” between values parts separate entries of the source, which are not always exact repeats. Identical values can stand only once.

Assays:
OVCAR3 cells [1] = assay: Intraperitoneal tumor model, bioluminescence, OVCAR3; assay type: in vivo, human EOC cells in BALB/c-Nude mice; details: SPC25-overexpressing OVCAR3, 6 weeks CDDP
Description: (§1) Subsequently, we selected 4 representative EOC cell lines (Figure S1F,G, Supporting Information) and validated the role of SPC25 in mediating platinum resistance in EOC through a series of in vitro and in vivo experiments. […] To further establish an EOC mouse model, we intraperitoneally injected BALB/c‐Nude mice with EOC cells with stable luciferase expression. CDDP treatment (three times per week, a week as a cycle) was initiated when the bioluminescence signal reached 2 × 10^7 p/s/cm^2/sr.
(§2) In the intraperitoneal tumor model, 1 × 10^6 of the indicated cells stably expressing luciferase were injected intraperitoneally into the mice. Treatment with saline (Vehicle), CDDP (5 mg/kg, 3 times per week for 1 week), CBP1 (10 mg/kg, once in 2 days), or a combination of CDDP (5 mg/kg, 3 times per week for 1 week) and CBP1 (10 mg/kg, once in 2 days) was initiated when the bioluminescence signal reached 2 × 10^7 p/s/cm^2/sr for 6 weeks of continuous treatment cycles. The mice were sacrificed when they became moribund, as determined by an observer blinded to the treatment. Finally, their tumors were excised for qRT‐PCR and Western blotting.

OVCAR3 cells [2] = assay: Survival of intraperitoneal tumor-bearing nude mice, OVCAR3; assay type: in vivo, human EOC cells in BALB/c-Nude mice
Description: as §1, §2

[3] = tested on: OVCAR8 xenografted tumor tissues; assay: TUNEL assay in intraperitoneal xenografted tumor tissues, OVCAR8; assay type: in vivo, human EOC cells in BALB/c-Nude mice; details: for TUNEL+ cell (%): #1-#6; for TUNEL assay: animal model OVCAR8
Protocol: as §2
TUNEL Assay: The TUNEL staining procedure was conducted on the DeadEnd Fluorometric TUNEL System (#G3250; Promega), according to the manufacturer’s instructions. In brief, paraffin-embedded sections were baked at 65°C for 60 min, followed by three washes in a xylene bath. The sections were then washed in a series of absolute ethanol, 95% ethanol, and 70% ethanol, and finally, in PBS. Then, each section was treated with proteinase K at 37°C for 30 min and washed three times with PBS. Thereafter, the sections were incubated with […] (containing Biotin-11-dUTP and TdT Enzyme) at 37 ℃ for 1 h in the dark, followed by three PBS washes. The samples were subsequently incubated with streptavidin–fluorescein at 37 ℃ for 30 min in the dark, followed by three washes with PBS. DAPI was used to stain the nucleus. Finally, the experimental outcomes were observed under a fluorescence microscope, and the percentages of TUNEL-positive cells were quantified from 10 randomly selected fields.

OVCAR8 cells = assay: Annexin V/PI apoptosis, OVCAR8; assay type: cell-based, human; details: replicates #1-#3
Protocol: Fluorescence-Activated Cell Sorting Assay: For apoptosis analysis, we used an Annexin V-FITC/PI Apoptosis Detection Kit (#A211-01; Vazyme Biotech), according to the manufacturer’s instructions. We considered the total proportion of Annexin V-positive cells (quadrants II and III) to be the apoptotic rate, regardless of the PI status. All samples were analyzed on a flow cytometer (cytoFLEX LX; Beckman Coulter, Indianapolis, IN, USA), and percentages of apoptotic cells were analyzed using CytExpert (Beckman Coulter).

Q: With `[NH2][Pt]([NH2])([Cl])[Cl]` [CDDP, cisplatin] as the compound, how does the “CDDP resistance of tumors” value (OVCAR3 cells [1]) read?
A: notable increase in CDDP resistance

Q: And the “Survival, days after CDDP treatment” value (OVCAR3 cells [2]; OVCAR3 SPC25-overexpressing, status 1, individual mice)?
A: 50 days and 52 days and 51 days and 55 days and 62 days

Q: What about the “Survival, days after CDDP treatment” value (OVCAR3 cells [2]; OVCAR3 Vector, status 0, individual mice) of the same compound?
A: 70 days and 64 days and 82 days and 85 days

Q: And the “Survival, days after CDDP treatment” value (OVCAR3 cells [2]; OVCAR3 Vector, status 1, individual mice)?
A: 58 days and 62 days

Q: And the “survival of tumor-bearing mice” value (OVCAR3 cells [2]; SPC25-overexpressing OVCAR3, CDDP)?
A: decreased survival

Q: And the “TUNEL+ cell (%)” value ([3]; OVCAR8 sh-SPC25#1, CDDP-treated mice)?
A: 27.13% and 29.66% and 28.67% and 22.53% and 32.03% and 26.06%

Q: And the “TUNEL+ cell (%)” value ([3]; OVCAR8 sh-Scramble, CDDP-treated mice)?
A: 5.89% and 11.46% and 4.76% and 9.62% and 7.34% and 8.41%

Q: And the TUNEL assay ([3]; animal #1)?
A: 10.02%

Q: And the TUNEL assay ([3]; animal #2)?
A: 8.97%

Q: What about the TUNEL assay ([3]; animal #3) of the same compound?
A: 6.23%

Q: What about the TUNEL assay ([3]; animal #4) of the same compound?
A: 11.92%

Q: What about the TUNEL assay ([3]; animal #5) of the same compound?
A: 7.56%

Q: What about the TUNEL assay ([3]; animal #6) of the same compound?
A: 8.03%

Q: And the TUNEL assay ([3]; animal #7)?
A: 7.63%

Q: And the “PI+/AnnexinV+” value (OVCAR8 cells; OVCAR8 Scramble, CDDP 10μM)?
A: 7.42 and 8.61 and 9.34

Q: What about the “PI+/AnnexinV+” value (OVCAR8 cells; OVCAR8 sh-SPC25#1, CDDP 10μM) of the same compound?
A: 24.86 and 27.38 and 21.74

Q: And the “PI+/AnnexinV+” value (OVCAR8 cells; OVCAR8 sh-SPC25#2, CDDP 10μM)?
A: 24.57 and 21.02 and 29.26
